Values joined by “and” are separate entries in the source; they are usually repeats but may differ in a detail not shown here. Equal values may be shown once. Blank lines part the entries; values can stand above or below the molecule they belong to.
Biological target: T1, DYRK1A (Homo sapiens, UniProt Q13627)
T1 construct: purchased DiscoverX
Assay: KINOMEscan DYRK1A binding assay (DiscoverX), Kd determination
Settings: eleven serial three fold dilutions, highest concentration 60 μM, several values in a cell = repeat determinations
Experimental: Compounds were tested for DYRK1A binding activity at DiscoverX. DiscoverX uses proprietary KINOMEscan® Assay (Fabian et al., “A Small Molecule-kinase Interaction Map for Clinical Kinase Inhibitors,” Nat. Biotechnol. 23(3):329-336 (2005), which is hereby incorporated by reference in its entirety). Compounds were screened for DYRK1A activity at a single concentration of 3 μM in duplicates. Similarly, the dissociation constant Kd of the hit compounds from the initial screening was determined at DiscoverX using their proprietary KINOMEscan® Assay. Kd values are determined using eleven serial three fold dilutions with the highest concentration of 60 μM.

Structure (SMILES): O=c1[nH]c2ccc(-c3cncc(NCCc4ccccc4)c3)cc2[nH]1 [Compound 30k, 5-(5-(Phenethylamino)pyridin-3-yl)-1H-benzo[d]imidazol-2(3H)-one]
Kd: 4.3 nM

Structure (SMILES): O=c1[nH]c2ccc(-c3cncc(NCc4cccnc4)c3)cc2[nH]1 [Compound 31b, 5-(5-((Pyridin-3-ylmethyl)amino)pyridin-3-yl)-1H-benzo[d]imidazol-2(3H)-one]
Kd: 2.1 nM

Structure (SMILES): O=c1[nH]c2ccc(-c3cncc(NCc4ccc(Cl)cc4)c3)cc2[nH]1 [Compound 30e, 5-(5-((4-Chlorobenzyl)amino)pyridin-3-yl)-1H-benzo[d]imidazol-2(3H)-one]
Kd: 23 nM

Structure (SMILES): Cn1c(=O)[nH]c2cc(-c3cncc(NCc4ccccc4)c3)ccc21 [Compound 12c, 5-(5-(Benzylamino)pyridin-3-yl)-1-methyl-1H-benzo[d]imidazol-2(3H)-one]
Kd: 2000 nM

Structure (SMILES): O=c1[nH]c2ccc(-c3cncc(NCc4cccc5ccccc45)c3)cc2[nH]1 [Compound 31d, 5-(5-((Naphthalen-1-ylmethyl)amino)pyridin-3-yl)-1H-benzo[d]imidazol-2(3H)-one]
Kd: 28 nM

Structure (SMILES): Cc1ncc(-c2ccc3[nH]c(=O)[nH]c3c2)cc1NCc1ccccc1 [Compound 13c, 5-(5-(Benzylamino)-6-methylpyridin-3-yl)-1H-benzo[d]imidazol-2(3H)-one]
Kd: 140 nM

Structure (SMILES): O=c1[nH]c2ccc(-c3ccc(NCc4ccc(F)cc4)nc3)cc2[nH]1 [Compound 11b, 5-(6-((4-Fluorobenzyl)amino)pyridin-3-yl)-1H-benzo[d]imidazol-2(3H)-one]
Kd: 580 nM and 510 nM

Structure (SMILES): O=c1[nH]c2ccc(-c3ccc(NCc4ccccc4)nc3)cc2[nH]1 [Compound 11a, 5-(6-(Benzylamino)pyridin-3-yl)-1H-benzo[d]imidazol-2(3H)-one]
Kd: 300 nM

Now from value to molecule:

Kd: 0.82 nM and 1.6 nM
Structure (SMILES): Cn1c(=O)[nH]c2ccc(-c3cncc(NCc4ccccc4)c3)cc21 [Compound 12b, 6-(5-(Benzylamino)pyridin-3-yl)-1-methyl-1H-benzo[d]imidazol-2(3H)-one]

Kd: 240 nM
Structure (SMILES): Cc1ncc(-c2ccc3[nH]c(=O)[nH]c3c2)cc1NCc1ccc(F)cc1 [Compound 13d, 5-(5-((4-Fluorobenzyl)amino)-6-methylpyridin-3-yl)-1H-benzo[d]imidazol-2(3H)-one]

Kd: 2.9 nM and 1.8 nM
Structure (SMILES): O=c1[nH]c2ccc(-c3cncc(NCc4ccc(F)cc4)c3)cc2[nH]1 [Compound 13b, 5-(5-((4-Fluorobenzyl)amino)pyridin-3-yl)-1H-benzo[d]imidazol-2(3H)-one]

Kd: 0.81 nM
Structure (SMILES): CC(Nc1cncc(-c2ccc3[nH]c(=O)n(C)c3c2)c1)c1ccccc1 (centres unmarked) [Compound 30n, 1-Methyl-6-(5-((1-phenylethyl)amino)pyridin-3-yl)-1H-benzo[d]imidazol-2(3H)-one]

Kd: 1.2 nM
Structure (SMILES): O=c1[nH]c2ccc(-c3cncc(NCc4ccccc4F)c3)cc2[nH]1 [Compound 30a, 5-(5-((2-Fluorobenzyl)amino)pyridin-3-yl)-1H-benzo[d]imidazol-2(3H)-one]

Kd: 31 nM
Structure (SMILES): N#Cc1ccc(CNc2cncc(-c3ccc4[nH]c(=O)[nH]c4c3)c2)cc1 [Compound 30g, 4-(((5-(2-Oxo-2,3-dihydro-1H-benzo[d]imidazol-5-yl)pyridin-3-yl)amino)methyl)benzonitrile]

Kd: 1.2 nM
Structure (SMILES): O=c1[nH]c2ccc(-c3cncc(NCc4cccc(F)c4)c3)cc2[nH]1 [Compound 30b, 5-(5-((3-Fluorobenzyl)amino)pyridin-3-yl)-1H-benzo[d]imidazol-2(3H)-one]

Kd: 5.8 nM
Structure (SMILES): N#Cc1cccc(CNc2cncc(-c3ccc4[nH]c(=O)[nH]c4c3)c2)c1 [Compound 30f, 3-(((5-(2-Oxo-2,3-dihydro-1H-benzo[d]imidazol-5-yl)pyridin-3-yl)amino)methyl)benzonitrile]

Kd: 3.9 nM
Structure (SMILES): O=c1[nH]c2ccc(-c3cncc(NCc4ccncc4)c3)cc2[nH]1 [Compound 31c, 5-(5-((Pyridin-4-ylmethyl)amino)pyridin-3-yl)-1H-benzo[d]imidazol-2(3H)-one]
